Here are results for four compounds from patent publication US20210308096A1, “COMPOSITION FOR PREVENTING OR TREATING PRURITUS” (INDUSTRIAL COOPERATION FOUNDATION CHONBUK NATIONAL …, priority 2017, published 2021).

Common to all, as to type: in vivo, BALB/c mice
In one test the test system is TSLP-induced pruritus. The experiment in a line: TSLP-induced pruritus, number of scratching actions (MicroAct). The following applies: mice; 1 μM and 10 μM injected subcutaneously together with 0.67 μg TSLP; counted for 1 hour; p<0.05 versus TSLP-treated group; FIG. 5. As for the experimental part: Six-week-old, specific-pathogen-free male BALB/c mice were purchased from Orient Bio Korea Inc. (Gapyeong, Gyeonggi-do, Korea) and housed in a laminar flow cabinet. They were provided with standard solid chows ad libitum. At the onset of the test, the mice were 7-8 weeks old. All animal care and use were performed in accordance with the protocol of the Institutional Animal Care and Use Committee of the Chonbuk National University Medical School. Isoflavone-based compounds genistein, daidzein, glycitein and equol were purchased from Sigma. They were dissolved in DMSO and diluted with distilled water. […] Histamine, chloroquine and DNCB were also purchased from Sigma. Pruritus was induced with TSLP. 0.67 μg of TSLP was dissolved in 0.1 mL of physiological saline and injected subcutaneously to induce pruritus. Pruritus was evaluated using MicroAct (Neuroscience, Inc., Tokyo, Japan) according to the method established by the company. The mouse was anesthetized and a magnet piece was inserted into the foot skin of the left hind leg. The mouse was put in a chamber surrounded by a coil and the number of scratching actions was recorded by a computer based on the electrical field generated by the scratching. The experimental conditions of the MicroAct were set as follows. Threshold p-p limit, 0.125 V; threshold minimum duration, 0.2 s; maximum amplitude range, 0.5 V; minimum amplitude range, 0.05 V; maximum frequency, 20 Hz; minimum frequency, 5 Hz. Recording was made only for 3 or more consecutive scratching actions. All the experiments were performed for at least 3 times and 2-3 mice were used per each group. Statistical data were represented by means and standard deviations. Statistical comparison was conducted by one-way ANOVA and the Fisher test. Significant difference between the groups was determined by the unpaired Student's t-test. The significant level of the p-value was less than 0.05. In order to measure the effect of inhibiting thymic stromal lymphopoietin (TSLP)-induced pruritus of genistein, daidzein, glycitein and equol, 0.67 μg of TSLP solution dissolved in 0.1 mL of physiological saline and injected subcutaneously to induce pruritus. After injecting each of genistein, daidzein, glycitein and equol at 1 μM and 10 μM together with the TSLP, the number of scratching actions was counted for 1 hour.

The test system of the next test is DNCB-induced pruritus. As to the kind of experiment: DNCB-induced pruritus, number of scratching actions (MicroAct). The following applies: DNCB-sensitized mice; 1 μM or 10 μM applied on the right ear with DNCB; counted for 1 hour; p<0.01 versus DNCB-treated group; FIG. 3. How it is done:
Six-week-old, specific-pathogen-free male BALB/c mice were purchased from Orient Bio Korea Inc. (Gapyeong, Gyeonggi-do, Korea) and housed in a laminar flow cabinet. They were provided with standard solid chows ad libitum. At the onset of the test, the mice were 7-8 weeks old. All animal care and use were performed in accordance with the protocol of the Institutional Animal Care and Use Committee of the Chonbuk National University Medical School. Isoflavone-based compounds genistein, daidzein, glycitein and equol were purchased from Sigma. They were dissolved in DMSO and diluted with distilled water. […] Histamine, chloroquine and DNCB were also purchased from Sigma. Pruritus was induced with DNCB. Specifically, after removing hair from the right ear of the mouse, 20 μL of 1% DNCB dissolved in a mixture of olive oil and ethanol (1:4) was applied for sensitization. 10 μL of 0.5% DNCB was applied on the same ear 7 days later (Exp. Dermatol., 2002, 11:285-291). Pruritus was evaluated using MicroAct (Neuroscience, Inc., Tokyo, Japan) according to the method established by the company. The mouse was anesthetized and a magnet piece was inserted into the foot skin of the left hind leg. The mouse was put in a chamber surrounded by a coil and the number of scratching actions was recorded by a computer based on the electrical field generated by the scratching. The experimental conditions of the MicroAct were set as follows. Threshold p-p limit, 0.125 V; threshold minimum duration, 0.2 s; maximum amplitude range, 0.5 V; minimum amplitude range, 0.05 V; maximum frequency, 20 Hz; minimum frequency, 5 Hz. Recording was made only for 3 or more consecutive scratching actions. All the experiments were performed for at least 3 times and 2-3 mice were used per each group. Statistical data were represented by means and standard deviations. Statistical comparison was conducted by one-way ANOVA and the Fisher test. Significant difference between the groups was determined by the unpaired Student's t-test. The significant level of the p-value was less than 0.05. In order to measure the effect of inhibiting DNCB-induced pruritus of genistein, daidzein, glycitein and equol, 20 μL of a 1% DNCB solution was applied on the right ear of the mouse for 7 days for sensitization. 10 μL of 0.5% DNCB was applied on the same ear 7 days later, 1 μM or 10 μM genistein, daidzein, glycitein or equol and 1% DNCB dissolved in physiological saline was applied on the right ear (physiological saline was applied for a negative control group) and the number of scratching actions was counted for 1 hour.

Test [1] deals with chloroquine-induced pruritus. The experiment in a line: Chloroquine-induced pruritus, number of scratching actions (MicroAct). As to conditions: mice; 1 μM and 10 μM injected subcutaneously together with 200 μg chloroquine; counted for 1 hour; p<0.01 versus chloroquine-treated group; FIG. 2. How it is done:
(§1) Six-week-old, specific-pathogen-free male BALB/c mice were purchased from Orient Bio Korea Inc. (Gapyeong, Gyeonggi-do, Korea) and housed in a laminar flow cabinet. They were provided with standard solid chows ad libitum. At the onset of the test, the mice were 7-8 weeks old. All animal care and use were performed in accordance with the protocol of the Institutional Animal Care and Use Committee of the Chonbuk National University Medical School. Isoflavone-based compounds genistein, daidzein, glycitein and equol were purchased from Sigma. They were dissolved in DMSO and diluted with distilled water. […] Histamine, chloroquine and DNCB were also purchased from Sigma. Pruritus was induced by subcutaneously injecting histamine and chloroquine to the mice. Specifically, 0.1 mL of 2 mg/mL histamine and 4 mg/mL chloroquine were injected respectively. Pruritus was evaluated using MicroAct (Neuroscience, Inc., Tokyo, Japan) according to the method established by the company. The mouse was anesthetized and a magnet piece was inserted into the foot skin of the left hind leg. The mouse was put in a chamber surrounded by a coil and the number of scratching actions was recorded by a computer based on the electrical field generated by the scratching. The experimental conditions of the MicroAct were set as follows. Threshold p-p limit, 0.125 V; threshold minimum duration, 0.2 s; maximum amplitude range, 0.5 V; minimum amplitude range, 0.05 V; maximum frequency, 20 Hz; minimum frequency, 5 Hz. Recording was made only for 3 or more consecutive scratching actions. All the experiments were performed for at least 3 times and 2-3 mice were used per each group. Statistical data were represented by means and standard deviations. Statistical comparison was conducted by one-way ANOVA and the Fisher test. Significant difference between the groups was determined by the unpaired Student's t-test. The significant level of the p-value was less than 0.05. In order to measure the effect of inhibiting chloroquine-induced pruritus of genistein, daidzein, glycitein and equol, 200 μg of chloroquine was dissolved in 0.1 mL of physiological saline and injected subcutaneously to induce pruritus. After injecting each of genistein, daidzein, glycitein and equol at 1 μM and 10 μM together with the chloroquine, the number of scratching actions was counted for 1 hour.

Test [2] concerns SLIGRL-induced pruritus (agonist for the protease activated receptor 2). The experiment in a line: SLIGRL-induced pruritus, number of scratching actions (MicroAct). The following applies: mice; 1 μM and 10 μM injected subcutaneously together with 20 μg SLIGRL; counted for 1 hour; p<0.05 versus SLIGRL-treated group; FIG. 4. How it is done: Six-week-old, specific-pathogen-free male BALB/c mice were purchased from Orient Bio Korea Inc. (Gapyeong, Gyeonggi-do, Korea) and housed in a laminar flow cabinet. They were provided with standard solid chows ad libitum. At the onset of the test, the mice were 7-8 weeks old. All animal care and use were performed in accordance with the protocol of the Institutional Animal Care and Use Committee of the Chonbuk National University Medical School. Isoflavone-based compounds genistein, daidzein, glycitein and equol were purchased from Sigma. They were dissolved in DMSO and diluted with distilled water. […] Histamine, chloroquine and DNCB were also purchased from Sigma. Pruritus was induced with SLIGRL. Specifically, 20 μg of SLIGRL was dissolved in 0.1 mL of physiological saline and injected subcutaneously to induce pruritus. Pruritus was evaluated using MicroAct (Neuroscience, Inc., Tokyo, Japan) according to the method established by the company. The mouse was anesthetized and a magnet piece was inserted into the foot skin of the left hind leg. The mouse was put in a chamber surrounded by a coil and the number of scratching actions was recorded by a computer based on the electrical field generated by the scratching. The experimental conditions of the MicroAct were set as follows. Threshold p-p limit, 0.125 V; threshold minimum duration, 0.2 s; maximum amplitude range, 0.5 V; minimum amplitude range, 0.05 V; maximum frequency, 20 Hz; minimum frequency, 5 Hz. Recording was made only for 3 or more consecutive scratching actions. All the experiments were performed for at least 3 times and 2-3 mice were used per each group. Statistical data were represented by means and standard deviations. Statistical comparison was conducted by one-way ANOVA and the Fisher test. Significant difference between the groups was determined by the unpaired Student's t-test. The significant level of the p-value was less than 0.05. In order to measure the effect of inhibiting pruritus induced by SLIGRL, which is an agonist for the protease activated receptor 2, of genistein, daidzein, glycitein and equol, 20 μg of SLIGRL was dissolved in 0.1 mL of physiological saline and injected subcutaneously to induce pruritus. After injecting each of genistein, daidzein, glycitein and equol at 1 μM and 10 μM together with the SLIGRL, the number of scratching actions was counted for 1 hour.

For test [3], the system named is histamine-induced pruritus. As to the kind of experiment: Histamine-induced pruritus, number of scratching actions (MicroAct). As to conditions: mice; 1 μM and 10 μM injected subcutaneously together with 100 μg histamine; counted for 1 hour; p<0.01 versus histamine-treated group; FIG. 1. As for the experimental part:
as §1, with “inhibiting histamine-induced” for “inhibiting chloroquine-induced”, “equol, 100” for “equol, 200”, “of histamine” for “of chloroquine”, “the histamine,” for “the chloroquine,”

In the case of `O=c1c(-c2ccc(O)cc2)coc2cc(O)cc(O)c12` [Genistein, genistein], the “Effect of inhibiting TSLP-induced pruritus (number of scratching actions)” value with TSLP-induced pruritus is reported as “significantly inhibited”. Moreover, in the test with DNCB-induced pruritus, the “Effect of inhibiting DNCB-induced pruritus (number of scratching actions)” value was “significantly inhibited”. In addition, the “Effect of inhibiting chloroquine-induced pruritus (number of scratching actions)” value in test [1] is “significantly inhibited”. Besides, the “Effect of inhibiting SLIGRL-induced pruritus (number of scratching actions)” value in test [2] is “significantly inhibited”. For the same compound, the “Effect of inhibiting histamine-induced pruritus (number of scratching actions)” value in test [3] was “significantly inhibited”.
For `O=c1c(-c2ccc(O)cc2)coc2cc(O)ccc12` [daidzein], the “Effect of inhibiting TSLP-induced pruritus (number of scratching actions)” value in the test on TSLP-induced pruritus is listed as “significantly inhibited”. Moreover, the “Effect of inhibiting DNCB-induced pruritus (number of scratching actions)” value with DNCB-induced pruritus was “significantly inhibited”. Besides, in test [1], the “Effect of inhibiting chloroquine-induced pruritus (number of scratching actions)” value is “significantly inhibited”. In addition, the “Effect of inhibiting SLIGRL-induced pruritus (number of scratching actions)” value in test [2] is listed as “significantly inhibited”. For the same compound, in test [3], the “Effect of inhibiting histamine-induced pruritus (number of scratching actions)” value is listed as “significantly inhibited”.
Turning to `Oc1ccc([C@H]2COc3cc(O)ccc3C2)cc1` [equol], in the test with TSLP-induced pruritus, the “Effect of inhibiting TSLP-induced pruritus (number of scratching actions)” value is “did not inhibit”. Also, in the test on DNCB-induced pruritus, the “Effect of inhibiting DNCB-induced pruritus (number of scratching actions)” value is given as “did not inhibit”. The “Effect of inhibiting chloroquine-induced pruritus (number of scratching actions)” value in test [1] was “did not inhibit”. Besides, the “Effect of inhibiting SLIGRL-induced pruritus (number of scratching actions)” value in test [2] is on record as “did not inhibit”. Moreover, the “Effect of inhibiting histamine-induced pruritus (number of scratching actions)” value in test [3] is given as “did not inhibit”.
Turning to `COc1cc2c(=O)c(-c3ccc(O)cc3)coc2cc1O` [glycitein], in the test with TSLP-induced pruritus, the “Effect of inhibiting TSLP-induced pruritus (number of scratching actions)” value was “did not inhibit”. Besides, the “Effect of inhibiting DNCB-induced pruritus (number of scratching actions)” value in the test on DNCB-induced pruritus is reported as “did not inhibit”. Moreover, the “Effect of inhibiting chloroquine-induced pruritus (number of scratching actions)” value in test [1] is recorded as “did not inhibit”. Moreover, in test [2], the “Effect of inhibiting SLIGRL-induced pruritus (number of scratching actions)” value is on record as “did not inhibit”. Further, in test [3], the “Effect of inhibiting histamine-induced pruritus (number of scratching actions)” value is on record as “did not inhibit”.
